Here are results for two molecules from US6620848B2, “Nitric oxide synthase inhibitors” (SmithKline Beecham Corporation, priority 1997, dated 2003).

As a reminder, the IC50 is the concentration that inhibits the measured activity by half.

For one test, the target named is T1, eNOS (Rattus norvegicus, UniProt Q62600).
T1 construct: from tissue; host or cells: rat thoracic aorta rings with intact endothelium
Briefly: Inhibition of eNOS in situ in rat aortic rings (basal tone, intact endothelium). It counts as cell-based. To be noted: rat aortic rings with intact endothelium, threshold phenylephrine. As to the method:
(§1) 1. Inhibition of eNOS and iNOS in Rat Aortic Rings
(§2) The inhibition of eNOS and iNOS in situ in rat aortic rings was assessed by measuring the increases in ring tension caused by NO synthase inhibition. For studies of basal tone (reflecting eNOS), rings of thoracic aorta with intact endothelium were prepared as described previously (Rees et al. (1989) Br. J. Pharmol. 96, 418-424) and cumulative concentration curves obtained for the inhibitors in the presence of a threshold concentration of phenylephrine (ED10≈10 nM). For studies of induced smooth muscle tone (reflecting iNOS), endothelium-denuded rings were exposed to LPS (0.1 μ/ml from S. typhosa) in the presence of phenylephrine at approximately ED90 for 6 h as described previously (Rees et al. (1990) Biochem. Biophys. Res. Commun. 173, 541-547). During this time a progressive loss of tone occurred because of iNOS induction. Cumulative concentration curves were then obtained for the inhibitors.

For a further test, the target named is T2, iNOS (Rattus norvegicus, UniProt Q06518).
T2 construct: endothelium-denuded rings were exposed to LPS; from tissue; host or cells: rat thoracic aorta rings, endothelium-denuded, LPS-exposed
Briefly: Inhibition of iNOS in situ in rat aortic rings (induced smooth muscle tone, LPS-exposed endothelium-denuded rings). Format: cell-based. The note with it: for IC50: endothelium-denuded, LPS 6 h, phenylephrine approx. ED90. As to the method:
as §1, §2

Turning to `CC(=N)NCCSCCC(N)C(=O)O` (racemic) [Example 2, (R/S)-[2-(1-iminoethylamino)ethyl]-D,L-homocysteine], the “eNOS % inhib @ 300 μM” value on eNOS was found to be 53%. For the same molecule, on iNOS, the “selectivity iNOS vs eNOS” value is recorded as over 500 fold and it took 0.45 µM to reach half-maximal inhibition (IC50).
`CC(=N)NCCSCC[C@@H](N)C(=O)O` [Example 3, (R)-[2-(1-iminoethylamino)ethyl]-D-homocysteine]: the “eNOS % inhib @ 300 μM” value on eNOS came to 20%. Further, on iNOS, the “selectivity iNOS vs eNOS” value was over 150 fold and half-maximal inhibition (IC50) required 6.6 µM.
